In ChEMBL document CHEMBL3045009, “Synthesis and Biological Activity of the Functional Derivatives of 3- and 4-(Dimethyl-aminomethyl)-1,2-dithiolanes” (1992):

Tests used:
Assay type in all cases: functional
Culex pipiens molestus = assay: Insecticidal activity against Culex pipiens molestus assessed as mortality at 5 ppm; conditions: for mortality at 5 ppm: Culex pipiens
Nilaparvata lugens = assay: Insecticidal activity against Nilaparvata lugens (brown planthopper) assessed as mortality at 50 ppm; conditions: for mortality at 50 ppm: Nilaparvata lugens
Chilo suppressalis [1] = assay: Insecticidal activity against Chilo suppressalis (rice stem borer) assessed as mortality at 50 ug/g administered as topical application
Spodoptera litura = assay: Insecticidal activity against Spodoptera litura assessed as mortality at 500 ppm; conditions: for mortality at 500 ppm: Spodoptera litura
Tetranychus urticae = assay: Acaricidal activity against Tetranychus urticae (two-spotted spider mite) assessed as mortality at 500 ppm; conditions: for mortality at 500 ppm: Tetranychus urticae
Chilo suppressalis [2] = assay: Insecticidal activity against Chilo suppressalis (rice stem borer) assessed as mortality compound administered as topical application

SMILES	mortality at 5 ppm (Culex pipiens molestus) [%]	mortality (Nilaparvata lugens) [%]	mortality (Chilo suppressalis [1]) [%]	mortality at 500 ppm (Spodoptera litura) [%]	mortality (Tetranychus urticae) [%]	mortality at 50 ppm (Nilaparvata lugens) [%]	mortality at 500 ppm (Tetranychus urticae) [%]	mortality (Culex pipiens molestus) [%]	mortality (Spodoptera litura) [%]	LD50 (Chilo suppressalis [2]) [mg/kg]
CSCCC(CN(C)C)SC.O=C(O)C(=O)O (configuration not stated)	0	30	0	0	100	–	–	–	–	–
CCOC(=O)[C@H]1SC[C@H](CN(C)C)CS1.O=C(O)C(=O)O	5	–	0	0	–	30	100	–	–	–
CSCCC(CN(C)C)SC (configuration not stated)	–	10	0	–	20	–	–	0	0	–
CNC(=O)SCC(CSC(=O)NC)CN(C)C	100	–	100	20	–	30	90	–	–	27.1
CN(C)CC(CCSC(=O)c1ccccc1)SC(=O)c1ccccc1.Cl (configuration not stated)	95	–	100	–	–	100	100	–	50	–
CN(C)CC1CS[S+]([O-])C1.O=C(O)C(=O)O (configuration not stated)	0	–	100	70	–	100	100	–	–	–
CN(C)C[C@@H]1CCSC(C(=O)c2ccccc2)(C(=O)c2ccccc2)S1.O.O=C(O)C(=O)O	–	–	100	–	–	100	100	65	0	7.5
CC(C)NC(=O)SCC(CSC(=O)NC(C)C)CN(C)C	–	20	100	–	60	–	–	100	0	–
CN(C)C(CSC(N)=O)CSC(N)=O.Cl [CARTAP HYDROCHLORIDE]	100	–	100	35	–	100	37	–	–	2.3
CC(C)NC(=O)SCC(CSC(=O)NC(C)C)CN(C)C.O=C(O)C(=O)O	100	0	100	0	90	–	–	–	–	30.5
CC(C)NC(=O)SCCC(CN(C)C)SC(=O)NC(C)C (configuration not stated)	65	–	100	0	–	45	50	–	–	24.5
CCN(CC)C(=O)[C@]1(C#N)SC[C@H](CN(C)C)CS1.O=C(O)C(=O)O	100	–	100	100	–	80	100	–	–	7.2
CN(C)CC(CS)CS.O=C(O)C(=O)O	100	–	100	30	–	100	100	–	–	–
CN(C)C[C@H]1CS[C@@](C#N)(c2ccc(Cl)cc2)SC1	100	–	100	0	–	100	90	–	–	–
CN(C)C1CS[S+]([O-])C1.O=C(O)C(=O)O (configuration not stated) [NEREISTOXIN MONOXIDE HYDROGEN OXALATE]	50	–	100	30	–	100	60	–	–	5.8
CN(C)CC1CSSSC1.O=C(O)C(=O)O	100	–	100	100	–	100	100	–	–	7.5
CN(C)C1CSSC1.O=C(O)C(=O)O [NEREISTOXIN HYDROGEN OXALATE]	100	–	100	30	–	100	50	–	–	1.7
CCOP(=O)(OCC)[C@]1(C#N)SC[C@H](CN(C)C)CS1.O=C(O)C(=O)O	100	–	60	10	–	80	100	–	–	–
CCOC(=O)CSCC(CSCC(=O)OCC)CN(C)C.O=C(O)C(=O)O	0	–	0	0	–	40	80	–	–	–
CN(C)C[C@@H]1CCSC(C#N)(c2ccc(Cl)cc2)S1.O=C(O)C(=O)O (mixture of isomers)	90	–	100	0	–	90	100	–	–	20.7
CCN(CC)C(=O)[C@]1(C#N)SC[C@@H](CN(C)C)CS1.O=C(O)C(=O)O	95	–	100	100	–	100	100	–	–	5.8
CCOP(=O)(OCC)[C@]1(C#N)SC[C@@H](CN(C)C)CS1.O=C(O)C(=O)O	100	–	100	70	–	100	100	–	–	–

SMILES	mortality at 5 ppm (Culex pipiens molestus) [%]	mortality (Nilaparvata lugens) [%]	mortality (Chilo suppressalis [1]) [%]	mortality at 500 ppm (Spodoptera litura) [%]	mortality (Tetranychus urticae) [%]	mortality at 50 ppm (Nilaparvata lugens) [%]	mortality at 500 ppm (Tetranychus urticae) [%]	mortality (Culex pipiens molestus) [%]	mortality (Spodoptera litura) [%]	LD50 (Chilo suppressalis [2]) [mg/kg]
CN(C)CC1CSC(C(=O)c2ccccc2)(C(=O)c2ccccc2)SC1	–	100	100	–	80	–	–	100	0	13.5
CCN(CC)C(=O)[C@]1(C#N)SC[C@H](CN(C)C)CS1	–	100	100	–	90	–	–	100	100	5.6
CN(C)CC(CCSC(=O)c1ccccc1)SC(=O)c1ccccc1.O.O=C(O)C(=O)O (configuration not stated)	–	100	100	–	100	–	–	100	0	–
CN(C)CC1CSC(C(=O)c2ccccc2)(C(=O)c2ccccc2)SC1.O=C(O)C(=O)O	100	–	100	0	–	100	100	–	–	–
CCC(=O)SCC(CSC(=O)CC)CN(C)C.O=C(O)C(=O)O	–	–	100	–	–	70	100	75	0	6.6
CN(C)CC(CSS(=O)(=O)c1ccccc1)CSS(=O)(=O)c1ccccc1.O=C(O)C(=O)O	0	–	100	80	–	100	100	–	–	–
CN(C)C[C@@H]1CCSC(C(=O)c2ccccc2)(C(=O)c2ccccc2)S1	–	90	100	–	100	–	–	40	10	7.1
CCC(=O)SCCC(CN(C)C)SC(=O)CC.O=C(O)C(=O)O (configuration not stated)	20	–	100	40	–	70	80	–	–	–
CNC(=S)SCCC(CN(C)C)SC(=S)NC (configuration not stated)	70	–	100	10	–	70	80	–	–	15.8
CC(=O)SCC(CSC(C)=O)CN(C)C.O=C(O)C(=O)O	100	–	100	70	–	100	100	–	–	32.5
CN(C)CC(CCSS(=O)(=O)c1ccccc1)SS(=O)(=O)c1ccccc1 (configuration not stated)	100	–	100	0	–	30	100	–	–	11.6
CN(C)C[C@H]1CS[C@](C#N)(c2ccc(Cl)cc2)SC1	100	–	100	0	–	100	70	–	–	–
CN(C)C(CSS(=O)(=O)c1ccccc1)CSS(=O)(=O)c1ccccc1 [BENSULTAP]	–	–	–	–	–	–	–	–	–	3.7
CCOC(=O)C1SCC(CN(C)C)CS1 (mixture of isomers)	0	–	0	0	–	90	20	–	–	–
CN(C)CC(CSC(=O)N(C)C)CSC(=O)N(C)C.O=C(O)C(=O)O	0	–	20	0	–	30	100	–	–	–
CN(C)CC1CSSC1.O=C(O)C(=O)O	100	–	100	90	–	100	100	–	–	11.4
CNC(=O)SCCC(CN(C)C)SC(=O)NC (configuration not stated)	5	–	100	0	–	100	30	–	–	–
CC(=O)SCCC(CN(C)C)SC(C)=O (configuration not stated)	80	–	100	10	–	80	100	–	–	–
CN(C)CC1CCS[S+]1[O-].O=C(O)C(=O)O (configuration not stated)	100	–	100	0	–	100	100	–	–	7.5
CN(C)C1CSSSC1.O=C(O)C(=O)O [THIOCYCLAM HYDROGEN OXALATE]	100	–	100	20	–	100	80	–	–	–
CN(C)CC(CSC(=O)c1ccccc1)CSC(=O)c1ccccc1	100	–	100	10	–	100	100	–	–	4
CN(C)CC(S)CCS.O=C(O)C(=O)O (configuration not stated)	45	–	100	60	–	100	100	–	–	–
